These are literature values, as cited in patent US4795743A, “2'-deamino-2'-hydroxyistamycin Bo derivatives of low toxicity” (Zaidan Hojin Biseibutsu Kagaku Kenkyu Kai, priority 1986, dated 1989).

In the data set the test system is resistant bacteria, Pseudomonas aeruginosa, resistant strains of gram-negative and gram-positive bacteria. To be noted: background, earlier filings; cited from earlier work.

In the case of `CNCC1CCC(N)C(OC2C(N)CC(O)C(N(C)C(=O)CN)C2O)O1` (stereo not shown) [3-O-demethylistamycin B], the antibacterial activity entry is “active against resistant bacteria, Pseudomonas aeruginosa and also against a variety of resistant strains of gram-negative and gram-positive bacteria”.
